Experimental data taken from article PMC11221360 (Molecular psychiatry, 2023).

Columns and labels:
[1] = test system: mice; test: Acute locomotor activity; format: in vivo, mouse; settings: for most effective dose for locomotor activation (inverted U) / effect on locomotion: sc; for effect on locomotion: after 60 minutes of habituation, (S)-MTD up to 100 mg/kg
[2] = test system: rats; test: Catalepsy score; format: in vivo, rat
[3] = test system: mice; test: Psychomotor sensitization, repeated injections in open-field chambers; format: in vivo, mouse; settings: for psychomotor sensitization: ip, three days, (R)-MTD 2, 5, 10, (R,S)-MTD 4, 10, 20, (S)-MTD 20, 30, 40 mg/kg
[4] = test system: rats; test: Hotplate analgesia; format: in vivo, rat
[5] = test system: rats; test: Intravenous self-administration; format: in vivo, rat; settings: for shape of IVSA dose-response / unit dose with peak infusion rates in IVSA dose response: trained rats; for acquisition of IVSA in dose finding experiments: rats, (R)-MTD at 50 μg/kg/infusion, (S)-MTD even at high unit doses
[6] = test system: extracellular dopamine in rat VTA; test: In vivo microdialysis, perfusion into VTA, somatodendritic dopamine release; settings: for effect on extracellular dopamine: local perfusion, (S)-MTD up to 100 μM
[7] = molecular target: SERT (Homo sapiens, UniProt P31645); test: Receptor and enzyme competitive screen; format: binding; settings: 100 nM
[8] = test system: NMDARs; settings: ref [10], cited from earlier work

SERT, sequence (P31645 whole entry, species assumed): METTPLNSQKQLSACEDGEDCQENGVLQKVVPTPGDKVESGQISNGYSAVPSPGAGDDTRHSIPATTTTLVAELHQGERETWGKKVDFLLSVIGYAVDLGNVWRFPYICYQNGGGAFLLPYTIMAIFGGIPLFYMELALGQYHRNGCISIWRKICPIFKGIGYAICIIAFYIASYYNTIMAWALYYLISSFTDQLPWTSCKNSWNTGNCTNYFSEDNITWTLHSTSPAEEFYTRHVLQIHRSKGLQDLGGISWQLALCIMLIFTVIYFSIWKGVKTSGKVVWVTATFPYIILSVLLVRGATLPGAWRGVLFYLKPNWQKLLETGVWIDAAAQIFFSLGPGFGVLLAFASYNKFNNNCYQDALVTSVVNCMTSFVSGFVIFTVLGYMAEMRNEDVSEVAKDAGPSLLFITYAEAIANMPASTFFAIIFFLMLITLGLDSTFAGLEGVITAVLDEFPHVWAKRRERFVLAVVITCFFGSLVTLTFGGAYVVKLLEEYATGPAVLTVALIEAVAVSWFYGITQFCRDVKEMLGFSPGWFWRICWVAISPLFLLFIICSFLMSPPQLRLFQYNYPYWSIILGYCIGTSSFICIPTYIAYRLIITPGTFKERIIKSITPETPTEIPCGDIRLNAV

| SMILES | most effective dose for locomotor activation (inverted U) [1] [mg/kg] | effect on locomotion [1] | cataleptic ED50 (%MPE) [2] [mg/kg] | dose at which maximal cataleptic effects were observed [2] [mg/kg] | psychomotor sensitization [3] | hotplate ED50 (%MPE) [4] [mg/kg] | hotplate agonist profile [4] | shape of IVSA dose-response [5] | unit dose with peak infusion rates in IVSA dose response [5] [µg/kg] | effect on extracellular dopamine [6] | acquisition of IVSA in dose finding experiments [5] | other results |
| --- | --- | --- | --- | --- | --- | --- | --- | --- | --- | --- | --- | --- |
| CCC(=O)C(CC(C)N(C)C)(c1ccccc1)c1ccccc1 (racemic) [(R,S)-MTD, (R,S)-methadone] | 10 | increased locomotion | 2.1 | 10 | failed to show sensitization at any dose | 1.2 | full agonistic activity | inverted-U shaped dose-response curve | 50 | – | – | – |
| CCC(=O)C(C[C@@H](C)N(C)C)(c1ccccc1)c1ccccc1 [(R)-MTD] | 3 | increased locomotion | 0.9 | 3 | produced psychomotor sensitization at 10 mg/kg | 0.5 | full agonistic activity | inverted-U shaped dose-response curve | 25 | concentration-dependent increase in extracellular dopamine | readily self-administered | maximum consumed at the highest dose in IVSA ([5]; rats exposed to (R)-MTD, dose finding): ~ 2 mg/kg; inhibition of binding at SERT [7]: 68% |
| CCC(=O)C(C[C@H](C)N(C)C)(c1ccccc1)c1ccccc1 [(S)-MTD, (S)-methadone] | – | did not produce any significant locomotor-activating effects | – | – | failed to show sensitization at any dose | – | full agonistic activity | no evidence of dose response | – | did not induce any significant effect | never acquired IVSA | effect on locomotor-stimulating effect of (R)-MTD (10 mg/kg, sc) ([1]; (S)-MTD 10, 30 mg/kg sc, 15 min before (R)-MTD): dose-dependently counteracted; catalepsy score agonist profile ([2]; up to 100 mg/kg): partial agonist; effect on (R)-MTD (10 μM)-induced dopamine release ([6]; co-perfusion, (S)-MTD 100 μM): completely counteracted; effect of pretreatment on (R)-MTD-induced (10 mg/kg, ip) sensitization ([3]; (S)-MTD 10 or 30 mg/kg): did not prevent psychomotor sensitization; affinity for the MOR, times greater than affinity for the NMDAR [8, 15]: ~ 300 times; affinity at NMDARs [8]: 2.6 to 7.4 µM; IVSA in (R)-MTD-trained rats switched to (S)-MTD ([5]; 500 μg/kg/infusion): reliable IVSA; cumulative dose consumed at the highest dose in IVSA ([5]; (R)-MTD-trained rats switched to (S)-MTD): ~ 30 mg/kg |
